Usually speed of sound stands for how fast a sound wave travels through the sample. For orientation: mass density means mass per unit of volume.

For data set [1] the following is noted: 101.3 kPa, Liquid; for speed of sound: Single path-length method; for mass density: Vibrating tube method.
Data set [2] can be described thus: xn = mol fraction of the nth substance listed. The conditions noted are these: 101.3 kPa, Liquid, x2 = 0; for speed of sound: Single path-length method; for mass density: Vibrating tube method.

Structures are written as SMILES. Where “and” joins values, the source holds several entries; their conditions need not be identical. Equal values may be shown once. Numbers after ± are expanded uncertainties.

As for `CC(=O)[O-].OCC[NH2+]CCO` [2,2'-azanediylbis(ethanol) acetate], the speed of sound in data set [1] (293.15 K) turned out to be 1884.7 ± 20 m/s; in data set [1] (303.15 K) it was 1828.2 ± 20 m/s; in data set [1] (313.15 K), 1788.6 ± 20 m/s; in data set [1] (323.15 K) it was 1756 ± 20 m/s. Moreover, the mass density in data set [1] (293.15 K) came to 1180 ± 6 kg/m3; in data set [1] (303.15 K), 1173 ± 6 kg/m3; in data set [1] (313.15 K), 1167 ± 6 kg/m3; in data set [1] (323.15 K), 1160 ± 6 kg/m3.

As for `CC(=O)[O-].[NH3+]CCO` [2-hydroxyethylammonium acetate], the speed of sound is on record as 1812.9 ± 20 m/s in data set [1] (293.15 K), 1781.2 ± 20 m/s in data set [1] (303.15 K), 1754.7 ± 20 m/s in data set [1] (313.15 K) and 1730.9 ± 20 m/s in data set [1] (323.15 K). In addition, the mass density is 1150 ± 6 kg/m3 in data set [1] (293.15 K); 1144 ± 6 kg/m3 in data set [1] (303.15 K); 1139 ± 6 kg/m3 in data set [1] (313.15 K); 1133 ± 6 kg/m3 and 1132 ± 6 kg/m3 in data set [1] (323.15 K).

Turning to `CCCO` [propan-1-ol], the speed of sound was determined as 1223.4 ± 20 m/s in data set [1] (293.15 K), 1189.4 ± 20 m/s in data set [1] (303.15 K), 1155.5 ± 20 m/s in data set [1] (313.15 K) and 1122 ± 20 m/s in data set [1] (323.15 K). Moreover, the mass density in data set [1] (293.15 K) worked out at 803.6 ± 6 kg/m3; in data set [1] (303.15 K), 795.7 ± 6 kg/m3; in data set [1] (313.15 K), 787.5 ± 6 kg/m3; in data set [1] (323.15 K), 779.2 ± 6 kg/m3.

Consider `CCCO` [propan-1-ol] + CC(=O)[O-].OCC[NH2+]CCO, for which the speed of sound amounted to 1223.4 ± 20 m/s in data set [2] (293.15 K), 1189.4 ± 20 m/s in data set [2] (303.15 K), 1155.5 ± 20 m/s in data set [2] (313.15 K) and 1122 ± 20 m/s in data set [2] (323.15 K). The mass density turned out to be 803.6 ± 6 kg/m3 in data set [2] (293.15 K), 795.7 ± 6 kg/m3 in data set [2] (303.15 K), 787.5 ± 6 kg/m3 in data set [2] (313.15 K) and 779.2 ± 6 kg/m3 in data set [2] (323.15 K).

As for `CCCO` [propan-1-ol] + CC(=O)[O-].[NH3+]CCO, the speed of sound in data set [2] (293.15 K) amounted to 1223.4 ± 20 m/s; in data set [2] (303.15 K), 1189.4 ± 20 m/s; in data set [2] (313.15 K), 1155.5 ± 20 m/s; in data set [2] (323.15 K), 1122 ± 20 m/s. The mass density is given as 803.6 ± 6 kg/m3 in data set [2] (293.15 K), 795.7 ± 6 kg/m3 in data set [2] (303.15 K), 787.5 ± 6 kg/m3 in data set [2] (313.15 K) and 779.2 ± 6 kg/m3 in data set [2] (323.15 K).

As to `CC(C)O` [propan-2-ol], the speed of sound is listed as 1174.3 ± 20 m/s in data set [1] (293.15 K), 1122.4 ± 20 m/s in data set [1] (303.15 K), 1087.4 ± 20 m/s in data set [1] (313.15 K) and 1051.6 ± 20 m/s in data set [1] (323.15 K). For the same molecule, the mass density in data set [1] (293.15 K) turned out to be 791.5 ± 6 kg/m3; in data set [1] (303.15 K) it was 777 ± 6 kg/m3; in data set [1] (313.15 K), 768.2 ± 6 kg/m3; in data set [1] (323.15 K), 759 ± 6 kg/m3.

Regarding `CC(C)O` [propan-2-ol] + CC(=O)[O-].OCC[NH2+]CCO, the speed of sound turned out to be 1174.3 ± 20 m/s in data set [2] (293.15 K), 1122.4 ± 20 m/s in data set [2] (303.15 K), 1087.4 ± 20 m/s in data set [2] (313.15 K) and 1051.6 ± 20 m/s in data set [2] (323.15 K). Besides, the mass density is recorded as 791.5 ± 6 kg/m3 in data set [2] (293.15 K), 777 ± 6 kg/m3 in data set [2] (303.15 K), 768.2 ± 6 kg/m3 in data set [2] (313.15 K) and 759 ± 6 kg/m3 in data set [2] (323.15 K).

Take `CC(C)O` [propan-2-ol] + CC(=O)[O-].[NH3+]CCO: the speed of sound turned out to be 1174.3 ± 20 m/s in data set [2] (293.15 K), 1122.4 ± 20 m/s in data set [2] (303.15 K), 1087.4 ± 20 m/s in data set [2] (313.15 K) and 1051.6 ± 20 m/s in data set [2] (323.15 K). For the same molecule, the mass density in data set [2] (293.15 K) is given as 791.5 ± 6 kg/m3; in data set [2] (303.15 K), 777 ± 6 kg/m3; in data set [2] (313.15 K), 768.2 ± 6 kg/m3; in data set [2] (323.15 K) it was 759 ± 6 kg/m3.

These data come from the NIST ThermoML archive (doi:10.1021/acs.jced.9b00147).
